Experiments:
[1] = system: male SPF-ICR mice; experiment: Acute toxicity test
Procedure: (§1) (1) Acute toxicity test: • (i) To male SPF-ICR mice of 5 weeks old (supplied by Charles River Co.) were intraperitoneally administered PQQ·2Na and OPQs in the dosages of 20, 40, 80, 160 and 200 mg/kg body weight of mouse, respectively and they were bred at 25°C for 14 days. OPQ, 1-methylpropyl OPQ, 2-methylthioethyl OPQ, and benzyl OPQ were used as the OPQs. One group consisted of 8 mice. […] One group consisted of 8 mice. […] They were bred at 25°C for 14 days. One group consisted of eight mice. […] (2) Toxicity to kidney (i) Toxicity to kidney determined by urine examination: In the same manner as in the acute toxicity test, PQQ·2Na and OPQs were respectively intraperitoneally administered to mice and these mice were bred. Urine was collected every day and concentration of glucose in urine was obtained using Uristex II (manufactured by Miles·Sankyo Co.). […]

[2] = in vivo; conditions: mouse, in vivo, ip
Procedure: as §1

[3] = system: kidney; experiment: Toxicity to kidney determined by blood examination; assay type: in vivo, mice
Procedure: After one day from administration, the mice were fasted (only water was given) and after lapse of 18 hours, blood was collected and serum was obtained therefrom. Glucose, urea nitrogen and creatinine in the serum were examined using FUJI Dry Chemslide (manufactured by Fuji Photo Film Co., Ltd.). […]
Thereafter, the mice were fasted (with giving only water) and after lapse of 18 hours, blood was collected and serum was obtained therefrom. Contents of glucose, urea nitrogen and creatinine in serum were obtained using FUJI Dry Chemslide. The results were shown by average value for eight mice.

[4] = system: cataract; experiment: Anti-cataract effect, intraperitoneal administration, 50 % galactose fed rats; assay type: in vivo, Sprague-Davley rats; conditions: for Body weight (average): 20mg/kg rat intraperitoneally once a day
Procedure: Eightyfour male Sprague-Davley rats (supplied from Japan Charles Liver Co.) of four weeks old and having a body weight of 70 - 80 g were used and the following experiments were conducted. One group consisted of six rats.
The groups included normal group, 50 % galactose administration group, PQQ administration group, and OPQ administration group. Commercially available feeding stuff (manufactured by Japan Clea Co.) was given to the rats of normal group, and rats of 50 % galactose administration group, PQQ administration group and OPQ administration group were allowed to freely take powdery feeding stuff comprising a mixture of the above-mentioned commercially available powder feeding stuff and D-galactose for food additive in equal weight.
To the rats of PQQ and OPQ administration groups were intraperitoneally administered PQQ·2Na or OPQ in a dosage of 2 mg, 5 mg, 10 mg and 20 mg per 1 kg of rat once a day simultaneously with starting of galactose feeding and until termination of feeding.
On the 6th day and the 9th day from starting of experiment, eyeball was observed by stereoscopic microscope and judgment on cataract was made according to the following criteria. A0: No muddiness (normal) A1: Light white muddiness in the surface portion. A2: A slight heavy white muddiness in the surface portion. A3: Heavy white muddiness in the surface portion. A4: Heavy white muddiness in the surface portion and a slight white muddiness in the core portion. A5: Heavy white muddiness in the surface portion and the core portion.

[5] = biological target: aldose reductase of kidney (Canis lupus familiaris, UniProt A0A8I3P2L6); experiment: Inhibitory effect on aldose reductase of kidney; assay type: biochemical, dog; conditions: read-out: Degree of inhibition for aldose reductase (%)
Summary of the method: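 Aldose reductase was purified from dog kidney medulla. Activity was measured as NADPH consumption (A340 decrease) with DL-glyceraldehyde substrate and 3mM NADPH stock, in 0.1M phosphate buffer pH 6.2 at 25°C. One unit consumes 1 µmole NADPH/min.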

[6] = system: carbon tetrachloride (CCl4)-induced liver diseases; experiment: Pharmacological activity on carbon tetrachloride-induced liver diseases; assay type: in vivo, SD rats; conditions: 5mg/kg rat twice, CCl4 1 ml/kg rat
[7] = biological target: T1, aldose reductase of rabbit lens (Oryctolagus cuniculus, UniProt P15122); experiment: Inhibitory effect on aldose reductase of lens; assay type: biochemical; conditions: read-out: Degree of inhibition for aldose reductase (%)
T1 construct: to obtain electrophoretically homogeneous aldose reductase; from tissue; host or cells: rabbit lens
Procedure: 0.05 ml of 3mM NADPH, 0.1 ml of DL-glyceraldehyde and 0.04 ml of distilled water were added to 0.8 ml of 0.1M phosphoric acid buffer (pH 6.2) and left to stand at 25°C for 3 minutes. Then, 0.01 ml of the aldose reductase solution was added thereto to start reaction and decreasing of absorbance of 340 nm was measured at 25°C with time. Amount of enzyme which consumes 1 µmole of NADPH for 1 minute was taken as 1 unit.
Enzyme activity was measured under the same conditions as in the above measurement of aldose reductase activity except that 0.04 ml of aqueous solution of inhibitory substance in various concentrations was added in place of 0.04 ml of distilled water and degree of inhibition was calculated from comparison of the enzyme activity with the enzyme activity obtained in the absence of inhibitor. (1) OPQ, (2) methyl OPQ, (3) 1-methylpropyl OPQ, (4) 2-methylpropyl OPQ, (5) 2-carbamoylethyl OPQ, (6) hydroxymethyl OPQ, (7) 2-methylthioethyl OPQ, (8) 2-carboxyethyl OPQ, (9) 4-hydroxybenzyl OPQ, (10) 1-methylethyl OPQ, and (11) benzyl OPQ were used as inhibition substances and (12) PQQ was used as control.
Lens of rabbit was homogenized with 10mM phosphoric acid buffer (pH 7.0) containing 2mM dithiothreitol in an amount of two times the volume of the lens and subjected to centrifugation. The supernatant liquid was purified by affinity chromatography, gel filtration and chromatofocusing to obtain electrophoretically homogeneous aldose reductase. Using (1) OPQ, (2) 1-methylpropyl OPQ, (3) 2-methylpropyl OPQ, (4) hydroxymethyl OPQ, and (5) 1-methylethyl OPQ as inhibition substances, degree of inhibition of these substances for aldose reductase of rabbit lens was examined in the same manner in Example 32.

[8] = Solubility of the isolated compound, described in words; assay type: physicochemical

**Q.** Which results are given for `O=C(O)c1cc(C(=O)O)c2c(n1)C(=O)C(=O)c1cc(C(=O)O)[nH]c1-2` [PQQ·2Na, reference compound]?
**A.** death of mice ([1]; 80 mg intraperitoneally, 8 mice, 14 days): five mice died; death of mice ([1]; 160 mg and 200 mg intraperitoneally, 8 mice, 14 days): all of eight mice died; death of mice ([1]; mouse, in vivo): the mice survived; LD50 at 336 h [2]: ~70 mg/kg; Creatinine ([3]; mouse, in vivo, ip, 20 mg/kg): 0.8 mg/dL; Glucose ([3]; mouse, in vivo, ip, 20 mg/kg): 70 mg/dL; Urea nitrogen ([3]; mouse, in vivo, ip, 20 mg/kg): 25 mg/dL; Creatinine ([3]; mouse, in vivo, ip, 40 mg/kg): 2.3 mg/dL; Glucose ([3]; mouse, in vivo, ip, 40 mg/kg): 60 mg/dL; Urea nitrogen ([3]; mouse, in vivo, ip, 40 mg/kg): 110 mg/dL; Creatinine ([3]; mouse, in vivo, ip, 80 mg/kg): 3.4 mg/dL; Glucose ([3]; mouse, in vivo, ip, 80 mg/kg): 57 mg/dL; Urea nitrogen ([3]; mouse, in vivo, ip, 80 mg/kg): 130 mg/dL; Creatinine ([3]; mouse, in vivo, ip, 160 mg/kg): 4.2 mg/dL; Glucose ([3]; mouse, in vivo, ip, 160 mg/kg): 35 mg/dL; Urea nitrogen ([3]; mouse, in vivo, ip, 160 mg/kg): 139 mg/dL; body weight ([4]; 10 mg and 20 mg/kg rat intraperitoneally once a day): reduction in body weight was recognized; Body weight (average) ([4]; 6th day, normal group about 115 g): * Body weight reduced (average 66 g). Body weight of rats of normal group was about 115 g on the average.; Body weight (average) ([4]; 9th day, normal group about 141 g): ** Body weight did not increase (average 77 g). Body weight of rats of normal group was about 141 g on the average.

**Q.** For `CCC(C)c1nc2c3nc(C(=O)O)cc(C(=O)O)c3c3[nH]c(C(=O)O)cc3c2o1` (stereo not shown) [1-Methylpropyl OPQ, 5-(1-Methylpropyl)-2,8,10-tricarboxy-1H-oxazo[5,4-h]-pyrrolo[2,3-f]quinoline], which death of mice ([1]; mouse, in vivo) is on record?
**A.** no mice died

**Q.** What about the inhibition at 0.1 µM ([5]; concentration 1x10^-7 M) of the same molecule?
**A.** 32.6%

**Q.** And the inhibition at 0.2 µM ([5]; concentration 2x10^-7 M)?
**A.** 45.9%

**Q.** And the inhibition at 0.5 µM ([5]; concentration 5x10^-7 M)?
**A.** 61.7%

**Q.** What about the Creatinine ([3]; serum, 40 mg/kg mouse intraperitoneally, Table 2, no administration 0.8) of the same molecule?
**A.** 0.8 mg/dL

**Q.** What about the Urea nitrogen ([3]; serum, 40 mg/kg mouse intraperitoneally, Table 2, no administration 24) of the same molecule?
**A.** 26 mg/dL

**Q.** What about the Glucose ([3]; serum, 40 mg/kg mouse intraperitoneally, Table 2, no administration 78) of the same molecule?
**A.** 87 mg/dL

**Q.** And the Creatinine ([3]; serum, 80 mg/kg mouse intraperitoneally, Table 2, no administration 0.8)?
**A.** 0.8 mg/dL

**Q.** And the Urea nitrogen ([3]; serum, 80 mg/kg mouse intraperitoneally, Table 2, no administration 24)?
**A.** 22 mg/dL

**Q.** What about the Glucose ([3]; serum, 80 mg/kg mouse intraperitoneally, Table 2, no administration 78) of the same molecule?
**A.** 104 mg/dL

**Q.** What about the Creatinine ([3]; serum, 160 mg/kg mouse intraperitoneally, Table 2, no administration 0.8) of the same molecule?
**A.** 0.8 mg/dL

**Q.** What about the Urea nitrogen ([3]; serum, 160 mg/kg mouse intraperitoneally, Table 2, no administration 24) of the same molecule?
**A.** 27 mg/dL

**Q.** What about the Glucose ([3]; serum, 160 mg/kg mouse intraperitoneally, Table 2, no administration 78) of the same molecule?
**A.** 87 mg/dL

**Q.** What about the Creatinine ([3]; serum, 200 mg/kg mouse intraperitoneally, Table 2, no administration 0.8) of the same molecule?
**A.** 0.8 mg/dL

**Q.** And the Urea nitrogen ([3]; serum, 200 mg/kg mouse intraperitoneally, Table 2, no administration 24)?
**A.** 27 mg/dL

**Q.** And the Glucose ([3]; serum, 200 mg/kg mouse intraperitoneally, Table 2, no administration 78)?
**A.** 66 mg/dL

**Q.** What about the Total bilirubin ([6]; Table 27: CCl4 only 1.2, no administration 0.5) of the same molecule?
**A.** 0.7 mg/dL

**Q.** What about the GPT ([6]; Table 27: CCl4 only 818, no administration 16) of the same molecule?
**A.** 182 U/l

**Q.** What about the GOT ([6]; Table 27: CCl4 only 3308, no administration 144) of the same molecule?
**A.** 887 U/l

**Q.** And the inhibition at 1 µM ([7]; concentration 1x10^-6 M)?
**A.** 64.7%

**Q.** What about the inhibition at 0.1 µM ([7]; concentration 1x10^-7 M) of the same molecule?
**A.** 24%

**Q.** And the inhibition at 0.2 µM ([7]; concentration 2x10^-7 M)?
**A.** 36.4%

**Q.** What about the inhibition at 0.5 µM ([7]; concentration 5x10^-7 M) of the same molecule?
**A.** 50.8%

**Q.** And the “solubility in acetone and diethyl ether” value ([8]; acetone and diethyl ether)?
**A.** did not dissolve

**Q.** And the “solubility in lower alcohols” value ([8]; lower alcohols)?
**A.** dissolved

**Q.** And the solubility in water ([8]; water)?
**A.** easily soluble

**Q.** What about the “solubility under neutral and alkaline conditions” value ([8]; water, neutral and alkaline conditions) of the same molecule?
**A.** very easily soluble

Source: patent EP0429333B1, “Process for producing oxazopyrroloquinolines, novel oxazopyrroloquinolines, and use of oxazopyrroloquinolines” (priority 1989, dated 1991)
